pEC50: −log10 of the molar value.

In this experiment the target is T1, Chk2 (Homo sapiens, UniProt O96017).
T1 construct: made in house; host or cells: E. coli BL21 Star (Invitrogen)
Description: Chk2 inhibitor IMAP assay (high-throughput Chk2 screening assay). The format is biochemical. To be noted: IMAP fluorescence polarization assay, 10 μM ATP. How it is done:
Compounds set forth in Table 1 were tested in the Chk2 inhibitor IMAP assay described herein in Example 6.84. […] The letters given for the Chk2 EC50 values in Table 1 represent the following ranges: A=<100 nM; B=100-300 nM; C=300-1000 nM; D=1-10 μM; and E>10 μM.
Compounds can be screened for Chk2 inhibitory activity using a high-throughput screening assay based in the immobilized metal ion affinity-based fluorescence polarization (IMAP) assay developed by Molecular Devices. This assay is based on the high affinity binding of phosphate by immobilized metal (MIII) coordination complexes on nanoparticles. A fluorescein-labeled peptide substrate is used as the substrate for the kinase activity of Chk2 in the assay. The IMAP binding reagent stops the kinase reaction. The binding of the binding reagent results in a change in the rate of molecular motion of the peptide and causes an increase in the fluorescence polarization value observed for the fluorescein label attached to the end of the peptide. Thus, inhibition of Chk2 would result in a decrease in fluorescence polarization compared to control.
A specific protocol for screening Compounds for Chk2 inhibitory activity follows.
A Compound is supplied at 1 mM in 0.5 μl DMSO on 384 well plates (such as Greiner or Corning). After thawing, 5 μl DMSO is added to the drug plate. The drug plate is then incubated for 10 minutes to solubilize the Compound. An additional 19.5 μl of reaction buffer (10× stock prepared using 100 mM Tris-HCl, 100 mM MgCl2, 1% BSA, pH 7.2, stored at 4° C.)+1 mM DDT is added to bring the Compound to 4× final concentration. A positive control is also prepared at 4× final concentration. The following control wells are used: less enzyme control (all reagents except enzyme; 5 μl/well), less Compound control (all reagents except Compound; 5 μl/well), positive control (all reagents plus staurosporine at a final concentration of 5 μM; 5 μl/well).
Reagents are then added in the following order to give the following final concentration: 2.5 μl ATP/Chk2tide (Molecular Devices) (10 μM/100 nM final concentration), 1.25 μl Compound (5 μM final concentration inf 5.5% DMSO), and 1.25 μl Chk2 (1:500, 2.4 μg/mL final concentration).
Plates are covered and incubated at room temperature for 60 minutes.
IMAP binding reagent (Molecular Devices) is diluted 1:400 into binding buffer (Molecular Devices). 15 μl of this solution is then added to all wells and the plates are covered and incubated for 30 minutes.
Plates are read using a Tecan Ultra under the fluorescence polarization mode. Gain is set to the less enzyme and less Compound wells for each plate. Excitation 485 nm, emmission 535 nm, Z position 12519 and flashes 5 are used as settings. Raw data from the Tecan reader is imported into an access database for analysis.
For orientation: Polarisation of emitted light reports the rotation of a fluorescent probe.

T1 sequence (O96017 whole entry): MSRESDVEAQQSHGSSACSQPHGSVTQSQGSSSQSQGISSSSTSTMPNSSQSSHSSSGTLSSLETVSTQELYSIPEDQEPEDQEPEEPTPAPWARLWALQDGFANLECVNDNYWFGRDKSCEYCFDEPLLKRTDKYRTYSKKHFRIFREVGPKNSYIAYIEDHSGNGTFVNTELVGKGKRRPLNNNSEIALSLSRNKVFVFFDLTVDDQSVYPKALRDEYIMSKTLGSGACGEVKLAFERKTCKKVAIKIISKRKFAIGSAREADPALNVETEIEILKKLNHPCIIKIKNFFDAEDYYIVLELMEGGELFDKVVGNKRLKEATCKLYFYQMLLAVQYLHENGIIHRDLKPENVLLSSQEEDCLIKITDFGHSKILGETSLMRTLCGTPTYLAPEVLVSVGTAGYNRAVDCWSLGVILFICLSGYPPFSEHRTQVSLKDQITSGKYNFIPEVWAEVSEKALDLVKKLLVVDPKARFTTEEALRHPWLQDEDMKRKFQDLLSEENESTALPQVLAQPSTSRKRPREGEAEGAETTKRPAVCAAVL

The term pEC50 denotes the negative decadic logarithm of the EC50, by convention in mol/L. Higher therefore signals a low EC50. `CC(=O)c1ccc(NC(=O)Nc2ccc(/C(C)=N/NC(=N)N)cc2)cc1` [Compound 36]: the pEC50 is 6.52 to 7.00.

Turning to `COc1cc([N+](=O)[O-])c2[nH]c(C(=O)Nc3ccc(/C(C)=N/NC(=N)N)cc3)cc2c1` [Compound 69], the pEC50 was greater than 7.00.

Molecule `CCCC(=NNC(=N)N)c1ccc(NC(=O)Nc2ccc(C(CCC)=NNC(=N)N)cc2)cc1` [Compound 3] had a pEC50 greater than 7.00.

In the case of `CCNc1ccc2cc(C(=O)Nc3ccc(/C(C)=N/NC(=N)N)cc3)[nH]c2c1` [Compound 92], the pEC50 was 6.00 to 6.52.

In the case of `N=C(N)N/N=C1\CCc2cc(NC(=O)c3cc4cccc([N+](=O)[O-])c4[nH]3)ccc21` [Compound 96], the pEC50 was 5.00 to 6.00.

`C/C(=N\NC(=N)N)c1ccc(NC(=O)c2cc3ccccc3[nH]2)cc1` [Compound 7]: the pEC50 is 6.00 to 6.52.

In the case of `CC(=NNC(=N)N)c1ccc(NC(=O)Nc2ccc3c(c2)CCC3=NNC(=N)N)cc1` [Compound 6], the pEC50 is 6.00 to 6.52.

Regarding `C/C(=N\NC(=N)N)c1ccc2[nH]c(C(=O)Nc3ccc4[nH]c(C)cc4c3)cc2c1` [Compound 109], the negative logarithm of the EC50 (pEC50) was 6.00 to 6.52.

In the case of `C/C(=N\NC(=N)N)c1ccc(NC(=O)c2cc3ccccc3cn2)cc1` [Compound 58], the pEC50 was 5.00 to 6.00.

`C/C(=N/N/C(N)=N\O)c1ccc2[nH]c(C(=O)Nc3ccc(N4CCCCC4)cc3)cc2c1` [Compound 128]: the pEC50 is 6.52 to 7.00.

Take `COc1ccc2nc(C(=O)Nc3ccc(/C(C)=N/NC(=N)N)cc3)sc2c1` [Compound 82]: the pEC50 is 5.00 to 6.00.

`COc1cc2cc(C(=O)Nc3ccc(/C(C)=N/NC(=N)N)cc3)[nH]c2cc1NC(C)=O` [Compound 98] gave a pEC50 of 5.00 to 6.00.

In turn, `C/C(=N\NC(=N)N)c1ccc(NC(=O)Nc2ccc(C#N)cc2)cc1` [Compound 20] had a pEC50 greater than 7.00.

As for `C/C(=N\NC(=N)N)c1ccc(NC(=O)Nc2ccc(I)cc2)cc1` [Compound 38], the pEC50 is 6.00 to 6.52.

`C/C(=N\NC(=N)N)c1ccc(NC(=O)c2cc3ccc(Cl)cc3[nH]2)cc1` [Compound 94] showed a pEC50 of 6.00 to 6.52.

In turn, `C/C(=N\NC(=N)N)c1ccc2[nH]c(C(=O)Nc3ccc(N)cc3)cc2c1` [Compound 114] gave a pEC50 of 5.00 to 6.00.

In turn, `COc1ccc2[nH]c(C(=O)Nc3ccc(/C(C)=N/NC4=NCCN4)cc3)cc2c1` [Compound 23] had a pEC50 greater than 7.00.

For the molecule `COc1cc2cc(C(=O)Nc3ccc(/C(C)=N/NC(=N)N)cc3)[nH]c2cc1OC` [Compound 73], the negative logarithm of the EC50 (pEC50) is 6.00 to 6.52.

The molecule `C/C(=N\NC(=N)N)c1ccc(NC(=O)Nc2ccc(C)cc2)cc1` [Compound 50] showed a pEC50 of 5.00 to 6.00.

As to `CNC(=O)Oc1ccc2[nH]c(C(=O)Nc3ccc(/C(C)=N\NC(=N)N)cc3)cc2c1` [Compound 21], the pEC50 is 6.52 to 7.00.

Molecule `COc1cc2cc(C(=O)Nc3ccc(/C(C)=N/NC(=N)N)cc3)[nH]c2cc1N` [Compound 99] gave a pEC50 of 6.00 to 6.52.

`C/C(=N\NC(=N)N)c1ccc(NC(=O)c2nc3ccccc3[nH]2)cc1` [Compound 100] gave a pEC50 of less than 5.00.

`C/C(=N\NC1=NCCN1)c1ccc(NC(=O)c2cc3cccc([N+](=O)[O-])c3[nH]2)cc1` [Compound 22] gave a negative-log EC50 (pEC50) greater than 7.00.

In turn, `COc1cc2nc(NC(=O)c3ccc(/C(C)=N\NC(=N)N)cc3)sc2cc1OC` [Compound 45] gave a pEC50 of 5.00 to 6.00.

Take `CSC(=N)N/N=C(\C)c1ccc(NC(=O)Nc2ccc(/C(C)=N/NC(=N)SC)cc2)cc1` [Compound 63]: the pEC50 is 5.00 to 6.00.

Molecule `C/C(=N\NC(=N)N)c1ccc(NC(=O)c2cc3c(C)cccc3[nH]2)cc1` [Compound 97] had a pEC50 of 5.00 to 6.00.

In turn, `C/C(=N\NC(=N)N)c1ccc(NC(=O)c2cc3cccc(/C(C)=N/NC(=N)N)c3[nH]2)cc1` [Compound 68] gave a pEC50 of 5.00 to 6.00.

`CCC/C(=N/NC(=N)N)c1ccc(NC(=O)c2cc3cc(OC)ccc3[nH]2)cc1` (single isomer, unassigned) [Compound 26] showed a pEC50 of 6.00 to 6.52.

`C/C(=N/NC(=N)N)c1ccc(NC(=O)Nc2ccc(/C(C)=N/NC(=N)N)cc2)cc1C` [Compound 61] had a pEC50 of less than 5.00.

`C/C(=N\NC(=N)N)c1ccc2[nH]c(C(=O)Nc3ccc4cnccc4c3)cc2c1` [Compound 126]: the negative logarithm of the EC50 (pEC50) was greater than 7.00.

On to `C/C(=N\NC(=N)N)c1ccc(NC(=O)Nc2ccc(Br)cc2)cc1` [Compound 37], for which the pEC50 is 6.52 to 7.00.

`C/C(=N\NC(=N)N)c1ccc2[nH]c(C(=O)Nc3ccc4nc[nH]c4c3)cc2c1` [Compound 121]: the pEC50 is greater than 7.00.

For `CCCC(=NNC(=N)N)c1ccc2[nH]c(C(=O)Nc3ccc4cc[nH]c4c3)cc2c1` (single isomer, unassigned) [Compound 113], the negative logarithm of the EC50 (pEC50) was 6.00 to 6.52.

Consider `COc1cccc2cc(C(=O)Nc3ccc(C(C)=NNC(=N)N)cc3)[nH]c12` [Compound 75], for which the pEC50 was 5.00 to 6.00.

`CC(C)CC(=NNC(=N)N)c1ccc2[nH]c(C(=O)Nc3ccc4cc[nH]c4c3)cc2c1` (single isomer, unassigned) [Compound 123]: the pEC50 was greater than 7.00.

For the molecule `C/C(=N\NC(=N)N)c1ccc(NC(=O)c2cc3cc(F)ccc3[nH]2)cc1` [Compound 87], the pEC50 is 5.00 to 6.00.

`C/C(=N\NC(=N)N)c1ccc2[nH]c(C(=O)Nc3ccc4nc(C)ccc4c3)cc2c1` [Compound 125] had a pEC50 of 6.52 to 7.00.

Molecule `C/C(=N\NC(=N)N)c1ccc(NC(=O)c2cc3cc(/C(C)=N/NC(=N)N)ccc3[nH]2)cc1` [Compound 17] had a pEC50 greater than 7.00.

For the molecule `CC(=O)c1ccc(NC(=O)c2cc3cc(/C(C)=N/NC(=N)N)ccc3[nH]2)cc1` [Compound 72], the pEC50 was 6.00 to 6.52.

`C/C(=N\NC(=N)N)c1ccc(NC(=O)c2cc3cc(N)ccc3[nH]2)cc1` [Compound 25] had a negative-log EC50 (pEC50) of 6.00 to 6.52.

On to `C/C(=N\NC(=N)N)c1ccc2[nH]c(C(=O)Nc3ccc4ncccc4c3)cc2c1` [Compound 101], for which the negative logarithm of the EC50 (pEC50) is greater than 7.00.

`C/C(=N/NC(=N)N)c1ccc(NC(=O)c2[nH]c3ccccc3c2Br)cc1` [Compound 30] gave a pEC50 of 6.00 to 6.52.

Molecule `C/C(=N\NC(=N)N)c1ccc2[nH]c(C(=O)Nc3ccc4[nH]ccc4c3)cc2c1` [Compound 80] gave a pEC50 of 6.00 to 6.52.

`COc1ccc2[nH]c(C(=O)Nc3ccc(C(C)=NNC(N)=NO)cc3)cc2c1` [Compound 117] had a pEC50 greater than 7.00.

For the molecule `CCC/C(=N\NC(=N)N)c1ccc(NC(=O)Nc2ccc(/C(C)=N/NC(=N)N)cc2)cc1` [Compound 1], the pEC50 is greater than 7.00.

`CCC/C(=N/NC(=N)N)c1ccc(NC(=O)c2cc3cc(OC)ccc3[nH]2)cc1` (single isomer, unassigned) [Compound 24] had a pEC50 greater than 7.00.

Molecule `C/C(=N\NC(=N)N)c1ccc(NC(=O)Nc2ccc(/C(C)=N/NC(=N)N)c(C)c2)cc1` [Compound 4] showed a pEC50 of 6.52 to 7.00.

As for `C/C(=N\NC1=NCCN1)c1ccc(NC(=O)Nc2ccc(/C(C)=N/NC3=NCCN3)cc2)cc1` [Compound 15], the pEC50 is greater than 7.00.

Molecule `C/C(=N\NC(=N)N)c1ccc(NC(=O)c2ccc(-c3cnc(N)nc3)cc2)cc1` [Compound 47] showed a pEC50 of 6.00 to 6.52.

In turn, `CC(=NNC(N)=NO)c1ccc(NC(=O)c2cc3cccc([N+](=O)[O-])c3[nH]2)cc1` [Compound 118] had a negative-log EC50 (pEC50) greater than 7.00.

On to `C/C(=N\NC(=N)N)c1ccc(NC(=O)c2cc3cccc([N+](=O)[O-])c3[nH]2)cc1C` [Compound 84], for which the pEC50 was 5.00 to 6.00.

The values are drawn from US8765802B2, “Kinase inhibitors, compositions thereof, and methods of use therewith” (Provid Pharmaceuticals, Inc., priority 2007, dated 2014).
